Measurements as given in paper PMC7932537, “Quantitative profiling of protease specificity” (PLoS Computational Biology, 2021).

Experiments:
MMP-2 [1] = assay: Substrate phage display with NGS: relative probability (RP) of P3-P1' tetramer clusters; format: biochemical, human; conditions: MMP2;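 note: ratio of tetramer probability after protease selection to that in naive phage library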
MMP-2 [2] = target: T1, MMP-2 (Homo sapiens, UniProt P08253); assay: K(obs) of individual phage substrates (set of 1369); format: biochemical; conditions: MMP2
T1 sequence (P08253 110-660): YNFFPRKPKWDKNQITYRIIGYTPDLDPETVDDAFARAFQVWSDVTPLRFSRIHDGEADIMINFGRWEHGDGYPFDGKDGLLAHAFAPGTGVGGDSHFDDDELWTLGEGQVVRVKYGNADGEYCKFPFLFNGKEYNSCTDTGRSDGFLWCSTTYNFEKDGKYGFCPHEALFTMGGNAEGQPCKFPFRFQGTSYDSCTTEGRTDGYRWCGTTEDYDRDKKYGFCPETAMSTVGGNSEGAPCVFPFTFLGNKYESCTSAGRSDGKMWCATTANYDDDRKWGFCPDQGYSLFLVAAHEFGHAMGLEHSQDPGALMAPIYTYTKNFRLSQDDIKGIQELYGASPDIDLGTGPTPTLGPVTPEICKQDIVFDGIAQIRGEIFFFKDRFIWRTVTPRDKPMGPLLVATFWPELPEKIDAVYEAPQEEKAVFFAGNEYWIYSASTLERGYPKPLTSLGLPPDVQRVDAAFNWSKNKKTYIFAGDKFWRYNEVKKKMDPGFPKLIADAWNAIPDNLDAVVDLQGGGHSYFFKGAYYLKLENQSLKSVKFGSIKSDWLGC

MMP-9 = MMP-9 (Homo sapiens, UniProt P14780); assay: as above; format: biochemical; conditions: MMP9
Chain of MMP-9 (P14780 94-707): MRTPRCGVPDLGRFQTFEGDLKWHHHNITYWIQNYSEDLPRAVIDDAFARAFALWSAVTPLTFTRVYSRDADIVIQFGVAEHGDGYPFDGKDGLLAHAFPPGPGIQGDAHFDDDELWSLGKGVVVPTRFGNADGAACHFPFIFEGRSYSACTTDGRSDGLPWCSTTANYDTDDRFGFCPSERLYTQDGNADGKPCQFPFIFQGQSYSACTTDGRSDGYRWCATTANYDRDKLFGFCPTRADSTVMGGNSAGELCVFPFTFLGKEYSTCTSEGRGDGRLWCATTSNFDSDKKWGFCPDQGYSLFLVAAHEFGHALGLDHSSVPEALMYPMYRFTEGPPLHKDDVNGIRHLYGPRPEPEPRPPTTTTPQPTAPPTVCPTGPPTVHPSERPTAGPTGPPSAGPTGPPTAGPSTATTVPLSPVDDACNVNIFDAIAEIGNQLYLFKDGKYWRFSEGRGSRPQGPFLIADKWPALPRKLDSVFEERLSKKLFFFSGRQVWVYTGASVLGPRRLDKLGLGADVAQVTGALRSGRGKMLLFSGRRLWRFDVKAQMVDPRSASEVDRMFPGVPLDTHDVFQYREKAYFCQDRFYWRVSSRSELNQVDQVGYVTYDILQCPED

[3] = RP of the P3-P1' tetramer contained in the substrate
[4] = individual phage substrate of the set of 1369 peptides, cleavage position marked by '-'
[5] = individual phage substrate of the set of 1369 peptides, dash in the sequence marks the cleavage position
[6] = RP of the P3-P1' tetramer contained in the substrate (substrate phage display with NGS)
[7] = individual phage substrates, set of 1369 peptides, cleavage position marked by hyphen in sequence
[8] = individual phage substrates, set of 1369 peptides, hyphen in sequence marks cleavage position

| Substance | Kobs (MMP-2 [2]; [4]) [M⁻¹ s⁻¹] | Kobs (MMP-9; [5]) [M⁻¹ s⁻¹] | Kobs (MMP-2 [2]; [7]) [M⁻¹ s⁻¹] | Kobs (MMP-9; [8]) [M⁻¹ s⁻¹] | relative probability (RP) (MMP-2 [1]; [3]) | relative probability (RP) (MMP-2 [1]; [6]) |
| --- | --- | --- | --- | --- | --- | --- |
| RTPMA-MTASG | 2837.92 | 3637.04 | – | – | 30.2676 | – |
| RVTWA-LTASG | – | – | 0 | 1196.62 | – | 0.4366 |
| RYAQP-LTASG | – | – | 4205.91 | 2409.72 | – | 14.4283 |
| SEPFG-LTASG | 12792.1 | 12792.1 | – | – | 31.7131 | – |
| SEWQG-LTASG | 1711.63 | 690.17 | – | – | 12.939 | – |
| SFPNP-LTASG | 5667.28 | 2545.25 | – | – | 23.6266 | – |
| SGAHG-LLLTA | 517.582 | 1071.29 | – | – | 23.6336 | – |
| SGAHG-LLTTA | 1112.44 | 142.481 | – | – | 23.6336 | – |
| SGALH-LKATA | – | – | 4205.91 | 6688.74 | – | 14.6488 |
| SGAQM-LRGTA | – | – | 4082.43 | 5461.43 | – | 8.608 |
| SGARA-MKWTA | 1373.05 | 2837.92 | – | – | 25.2992 | – |
| SGARS-LKGTA | – | – | 9740.44 | 12792.1 | – | 17.186 |
| SGARS-MRLTA | – | – | 0 | 762.325 | – | 12.2991 |
| SGFAH-LTSTA | – | – | 4763.33 | 171.876 | – | 19.6504 |
| SGFLH-WRSTA | – | – | 0 | 0 | – | 0.05793 |
| SGFRN-LRITA | – | – | 0 | 201.585 | – | 9.821 |
| SGGSG-LRIGL | 12792.1 | 201.585 | – | – | 1.9698 | – |
| SGGSG-LRILQ | 0 | 0 | – | – | 1.9698 | – |
| SGGSG-LRVKR | – | – | 551.253 | 231.616 | – | 1.9698 |
| SGGSG-LWATP | 1870.4 | 1071.29 | – | – | 1.9698 | – |
| SGHQN-LMATA | – | – | 7386.83 | 1561.44 | – | 17.7487 |
| SGHRS-LRSTA | 1981.53 | 3536.02 | – | – | 7.851 | – |
| SGLRH-LSNTA | – | – | 386.839 | 762.325 | – | 22.7972 |
| SGMAA-LKRTA | 3741.87 | 0 | – | – | 32.6562 | – |

| Substance | Kobs (MMP-2 [2]; [4]) [M⁻¹ s⁻¹] | Kobs (MMP-9; [5]) [M⁻¹ s⁻¹] | Kobs (MMP-2 [2]; [7]) [M⁻¹ s⁻¹] | Kobs (MMP-9; [8]) [M⁻¹ s⁻¹] | relative probability (RP) (MMP-2 [1]; [3]) | relative probability (RP) (MMP-2 [1]; [6]) |
| --- | --- | --- | --- | --- | --- | --- |
| SGMGH-LLHTA | 654.784 | 0 | – | – | 26.7019 | – |
| SGPAA-LLGTA | 8941.32 | 12792.1 | – | – | 35.8015 | – |
| SGPAR-LISTA | – | – | 12792.1 | 12792.1 | – | 34.9166 |
| SGPAY-WRTTA | – | – | 12792.1 | 1610.61 | – | 27.2209 |
| SGPFF-LRKTA | – | – | 1239.69 | 5090.5 | – | 12.8224 |
| SGPFH-LSRTA | – | – | 84.609 | 2280.5 | – | 23.4724 |
| SGPFR-LNWTA | – | – | 0 | 1373.05 | – | 16.3818 |
| SGPFY-LRNTA | – | – | 2038.8 | 7815.03 | – | 17.7778 |
| SGPHG-FFQTA | 171.876 | 551.253 | – | – | 21.975 | – |
| SGPHH-LTLTA | 1327.88 | 1925.41 | – | – | 27.4742 | – |
| SGPKS-LVRTA | 12792.1 | 12792.1 | – | – | 32.0343 | – |
| SGPKW-IIQTA | 2687.73 | 12792.1 | – | – | 22.5059 | – |
| SGPLG-IKSTA | – | – | 12792.1 | 12792.1 | – | 33.936 |
| SGPLG-IRYTA | 9740.44 | 7815.03 | – | – | 33.936 | – |
| SGPLG-LSGTA | 12792.1 | 12792.1 | – | – | 35.3536 | – |
| SGPLG-YTVTA | 12792.1 | 12792.1 | – | – | 33.1744 | – |
| SGPMA-LSRTA | 8321.48 | 12792.1 | – | – | 34.1737 | – |
| SGPQS-WRTTA | – | – | 7815.03 | 3165.09 | – | 25.7009 |
| SGPRA-LKGTA | 12792.1 | 12792.1 | – | – | 35.2345 | – |
| SGPRG-QVFTA | 12792.1 | 8941.32 | – | – | 29.4864 | – |
| SGPRM-LVLTA | 4082.43 | 6688.74 | – | – | 30.5973 | – |
| SGPRP-LYHTA | – | – | 12792.1 | 12792.1 | – | 34.3303 |
| SGPRS-MLNTA | 6688.74 | 5461.43 | – | – | 32.6673 | – |

Continued, in another order:

| Kobs (MMP-2 [2]; [4]) [M⁻¹ s⁻¹] | Kobs (MMP-9; [5]) [M⁻¹ s⁻¹] | Kobs (MMP-2 [2]; [7]) [M⁻¹ s⁻¹] | Kobs (MMP-9; [8]) [M⁻¹ s⁻¹] | Substance | relative probability (RP) (MMP-2 [1]; [3]) | relative probability (RP) (MMP-2 [1]; [6]) |
| --- | --- | --- | --- | --- | --- | --- |
| – | – | 12792.1 | 8321.48 | RTPVG-LTASG | – | 35.2016 |
| 6131.32 | 7015.91 | – | – | RVPYG-LTASG | 32.9966 | – |
| 12792.1 | 12792.1 | – | – | SGAFN-LYSTA | 16.2959 | – |
| 2996.69 | 3536.02 | – | – | SGAHG-ILSTA | 8.881 | – |
| 142.481 | 619.843 | – | – | SGAMG-LFRTA | 23.7576 | – |
| 1660.66 | 4613.14 | – | – | SGARN-LLWTA | 24.6947 | – |
| – | – | 0 | 0 | SGARQ-LVLTA | – | 3.214 |
| – | – | 0 | 0 | SGASH-MTLTA | – | 12.3873 |
| 654.784 | 355.093 | – | – | SGGSG-LRVLK | 1.9698 | – |
| – | – | 836.403 | 0 | SGISF-MSVTA | – | 23.3965 |
| – | – | 836.403 | 0 | SGISY-MRITA | – | 22.3091 |
| – | – | 836.403 | 0 | SGLGT-LSKTA | – | 24.6198 |
| – | – | 1196.62 | 484.315 | SGLWY-LSATA | – | 0.6796 |
| – | – | 9740.44 | 7386.83 | SGPAW-MKGTA | – | 34.3571 |
| – | – | 12792.1 | 12792.1 | SGPLG-ITLTA | – | 33.936 |
| 1283.43 | 10866.7 | – | – | SGPMF-LWTTA | 18.5721 | – |
| – | – | 1870.4 | 4205.91 | SGPMR-LVTTA | – | 20.4124 |
| – | – | 7386.83 | 12792.1 | SGPNY-IRATA | – | 6.689 |
| 7815.03 | 12792.1 | – | – | SGPQW-ITGTA | 28.1021 | – |
| 1154.21 | 2097.28 | – | – | SGPRF-IRLTA | 22.3274 | – |
| 12792.1 | 12792.1 | – | – | SGPRP-LLATA | 34.3303 | – |
| 12792.1 | 12792.1 | – | – | SGPRS-LYTTA | 33.3704 | – |
